The results in this text go back to US20240293548A1, “CONTACT LENS FOR PHOTODYNAMIC INACTIVATION OF GERMS, PRODUCT AND METHOD OF TREATING FUNGAL KERATITIS BY APPLYING THE SAME” (NATIONAL CHENG KUNG UNIVERSITY, priority 2023, published 2024).

In one assay the test system is C. albicans. Nature of the assay: Antimicrobial efficacy of the photoactive solution after adding a low concentration of hydrogen peroxide. Type of assay: cell-based, Candida albicans. To be noted: for C. albicans amount compared to the NC group: no light exposure. The protocol: The negative control (referred to as NC) group was the fungal solution of C. albicans not being treated with RB, hydrogen peroxide, and light exposure. The light control (referred to as LC) group was the fungal solution of C. albicans exposed to light but contained neither RB nor hydrogen peroxide. […] The hydrogen peroxide (referred to as H2O2) group was the fungal solution of C. albicans treated with 0.03 wt % hydrogen peroxide without RB for 15 minutes but not subjected to the light exposure treatment. The photodynamic therapy (referred to as PDT) group was the fungal solution of C. albicans treated with 0.1 wt % RB without hydrogen peroxide for 15 minutes and subjected to 35 J/cm^2 green light exposure treatment. The photodynamic therapy with 0.03 wt hydrogen peroxide (referred to as H2O2+PDT) group was the fungal solution of C. albicans treated with 0.1 wt % RB and 0.03 wt % hydrogen peroxide for 15 minutes and subjected to the 35 J/cm^2 green light exposure treatment. FIG. 6 was a bar chart illustrating the amount of C. albicans after different treatments in the fungal solution according to some embodiments of the present invention. The x-axis represented the NC group, the LC group, the DC group, the H2O2 group, the PDT group, and the H2O2+PDT group from left to right. The y-axis represented the C. albicans amount (unit: log CFU/mL).

Assay [1] deals with Candida albicans (drug-resistant strain, BCRC 21538 / ATCC 10231). The assay is described as follows: Antimicrobial efficacy of rose bengal-PDT (colony counting after green light exposure). Type of assay: cell-based. To be noted: 0.2 wt % RB; for log reduction value of the amounts of C. albicans: compared to without light exposure; for antimicrobial rate: equivalent of log reduction. The protocol:
A drug-resistant strain of Candida albicans was bought from the Bioresource Collection and Research Center (BCRC), Food Industry Research and Development Institute (FIRDI), 331, Shipin Rd., East Dist., Hsinchu City, Taiwan (postcode: 300193) under the accession number of BCRC 21538. The same strain could also be bought from American Type Culture Collection (ATCC), VA, USA under an accession number of ATCC 10231.
The Candida albicans was grown and prepared in a fungal solution with an amount of 1×10^7 CFU/mL and mixed with an equal volume of rose bengal (RB) solution (i.e., the mixed volume ratio was 1:1) to obtain a mixed solution containing 0.2 wt % RB (0.2 wt % RB group).
A portion of the mixed solution containing 0.2 wt % RB and fungi was exposed to green light of 10 J/cm^2 or 20 J/cm^2 at 25±1° C., and another portion of the mixed solution was not treated with light exposure. The light source of the aforementioned green light was a commercial green light LED with an emission peak at the wavelength of 520 nm. […] Noted that three drops represented three repeats. […] In the control group, the fungal solution was mixed with an equal volume of PBS.

As to `O=C1OC2(c3cc(I)c(O)c(I)c3Oc3c2cc(I)c(O)c3I)c2c(Cl)c(Cl)c(Cl)c(Cl)c21` [RB, rose bengal], in the assay on C. albicans (DC group: 0.1 wt % RB for 15 minutes), the “C. albicans amount compared to the NC group” value is “no significant difference”. Further, in the assay with C. albicans (PDT group: 0.1 wt % RB without hydrogen peroxide, 15 minutes, 35 J/cm^2 green light, compared to NC group), the “log reduction value of the C. albicans amount” value is reported as 2.5. In addition, the results for the “log reduction value of the amounts of C. albicans” value in assay [1] (10 J/cm^2 green light (520 nm)) and in assay [1] (20 J/cm^2 green light (520 nm)) were 1 and 6, respectively. Further, the antimicrobial rate in assay [1] (10 J/cm^2 green light) stood at 90%; in assay [1] (20 J/cm^2 green light), 99.9999%.
Consider `OO` [hydrogen peroxide], for which, in the assay with C. albicans (H2O2 group: 0.03 wt % hydrogen peroxide without RB for 15 minutes), the “C. albicans amount compared to the NC group” value is “no significant difference”.
